Laboratory results as given in ChEMBL document CHEMBL4359888, “Discovery of aryl-substituted indole and indoline derivatives as RORγt agonists” (Eur J Med Chem, 2019).
In brackets after ≈: the same amount, converted by molar mass.

Tests used:
[1] = Metabolic stability in mouse liver microsomes assessed as half life of compound at 1 uM and measured for 60 mins in presence of NADPH by HPLC-MS/MS analysis; format: ADME, Microsome
[2] = target: T1, Nuclear receptor ROR-gamma (Homo sapiens, UniProt P51449); assay: Transactivation of human GAL4-fused RORgammaT LBD expressed in human HEK293T cells incubated for 16 to 20 hrs by steady-glo luciferase assay; format: cell-based
T1 sequence (P51449 whole entry): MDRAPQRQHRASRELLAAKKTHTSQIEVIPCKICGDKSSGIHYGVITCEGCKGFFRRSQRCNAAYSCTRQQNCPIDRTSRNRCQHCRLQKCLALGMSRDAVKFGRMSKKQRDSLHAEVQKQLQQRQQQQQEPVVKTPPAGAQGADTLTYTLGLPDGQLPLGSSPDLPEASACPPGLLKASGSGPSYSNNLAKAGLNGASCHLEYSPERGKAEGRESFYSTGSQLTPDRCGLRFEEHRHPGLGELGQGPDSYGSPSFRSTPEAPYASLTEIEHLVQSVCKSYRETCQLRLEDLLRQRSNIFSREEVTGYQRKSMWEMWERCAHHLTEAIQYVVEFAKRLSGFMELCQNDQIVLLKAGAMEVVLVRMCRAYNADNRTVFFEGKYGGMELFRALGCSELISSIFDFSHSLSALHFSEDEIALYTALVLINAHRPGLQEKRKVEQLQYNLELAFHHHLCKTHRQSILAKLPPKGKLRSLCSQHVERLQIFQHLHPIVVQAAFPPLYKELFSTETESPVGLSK

[3] = target: T1, Nuclear receptor ROR-gamma; assay: Agonist activity at APC-labeled biotinylated RORgammaT LBD (unknown origin) assessed as induction of biotinylated SRC-1 peptide recruitment incubated for 1 hr by dual FRET assay
physchem = conditions: phosphate buffer, pH 7.46
in vitro = conditions: mouse, liver microsomes
[4] = Clearance in CD-1 mouse at 1 mg/kg, iv measured for 24 hrs by LC-MS/MS analysis; format: ADME, organism-based; conditions: in vivo
[5] = Cmax in CD-1 mouse at 5 mg/kg, po measured for 24 hrs by LC-MS/MS analysis; format: ADME, organism-based; design: dose 5 mg/kg, route oral; conditions: in vivo
[6] = Half life in CD-1 mouse at 1 mg/kg, iv measured for 24 hrs by LC-MS/MS analysis; format: ADME, organism-based; conditions: in vivo
[7] = Half life in CD-1 mouse at 5 mg/kg, po measured for 24 hrs by LC-MS/MS analysis; format: ADME, organism-based; conditions: in vivo
[8] = Cmax in CD-1 mouse at 1 mg/kg, iv measured for 24 hrs by LC-MS/MS analysis; format: ADME, organism-based; design: dose 1 mg/kg, route intravenous; conditions: in vivo
[9] = Oral bioavailability in CD-1 mouse at 5 mg/kg measured for 24 hrs by LC-MS/MS analysis; format: ADME, organism-based; conditions: in vivo
[10] = AUC (0 to last) in CD-1 mouse at 1 mg/kg, iv measured for 24 hrs by LC-MS/MS analysis; format: ADME, organism-based; design: dose 1 mg/kg, route intravenous, time 0 - last; conditions: in vivo
[11] = AUC (0 to last) in CD-1 mouse at 5 mg/kg, po measured for 24 hrs by LC-MS/MS analysis; format: ADME, organism-based; design: dose 5 mg/kg, route oral, time 0 - last; conditions: in vivo
[12] = Volume of distribution at steady state in CD-1 mouse at 1 mg/kg, iv measured for 24 hrs by LC-MS/MS analysis; format: ADME, organism-based; conditions: in vivo, read-out: Vdss

Row | Compound | half-life at 1 µM [1] [min] | EC50 [3] [nM] | other results
1 | O=C(O)CCc1cc2ccc(-c3cc(F)cc(OC(F)F)c3)cc2n1S(=O)(=O)c1cccc(C(F)(F)F)c1 | > 145 | 25.5 | EC50 [2]: 1710 nM
2 | O=C(O)CCc1cn(S(=O)(=O)c2cccc(C(F)(F)F)c2)c2cc(-c3cc(F)cc(OC(F)F)c3)ccc12 |  | 43.6 | 
3 | O=C(O)CC1Cc2ccc(-c3cccc(OC(F)(F)F)c3)cc2N1S(=O)(=O)c1cccc(C(F)(F)F)c1 (stereo not drawn) |  | 31.1 | 
4 | O=S(=O)(c1cccc(C(F)(F)F)c1)n1ncc2ccc(-c3cc(F)cc(OC(F)F)c3)cc21 |  | 205 | 
5 | O=C(O)CC1Cc2ccc(-c3ccc4c(c3)OC(F)(F)O4)cc2N1S(=O)(=O)c1cccc(C(F)(F)F)c1 (stereo not drawn) |  | 42.6 | 
6 | O=C(CC1Cc2ccc(-c3cc(F)cc(OC(F)F)c3)cc2N1S(=O)(=O)c1cccc(C(F)(F)F)c1)N1CC(O)C1 (stereo not drawn) |  | 244 | 
7 | O=C(O)CC1Cc2ccc(-c3ccc4c(c3)OCO4)cc2N1S(=O)(=O)c1cccc(C(F)(F)F)c1 (stereo not drawn) |  | 87.4 | 
8 | O=S(=O)(c1cccc(C(F)(F)F)c1)N1CCc2ccc(-c3cc(F)cc(OC(F)F)c3)cc21 | 11.4 | 50.6 | solubility kinetic at 2 h, 100 µM (physchem): 1.48 µM (≈ 0.721 µg/mL); microsomal CLint at 1 h, 1 µM (in vitro): 121 µL/min/mg
9 | COc1cc(F)cc(-c2ccc3c(c2)N(S(=O)(=O)c2cccc(C(F)(F)F)c2)C(CC(=O)O)C3)c1 (stereo not drawn) |  | 39.3 | 
10 | O=C(O)c1cc2ccc(-c3cc(F)cc(OC(F)F)c3)cc2n1S(=O)(=O)c1cccc(C(F)(F)F)c1 |  | 74.3 | 
11 | O=C(O)Cc1cn(S(=O)(=O)c2cccc(C(F)(F)F)c2)c2cc(-c3cc(F)cc(OC(F)F)c3)ccc12 |  | 133 | 
12 | O=C(CC1Cc2ccc(-c3cc(F)cc(OC(F)F)c3)cc2N1S(=O)(=O)c1cccc(C(F)(F)F)c1)N1CC2(COC2)C1 (stereo not drawn) | 0.7 | 47.9 | EC50 [2]: 752 nM
13 | O=C(O)CCCc1cc2ccc(-c3cc(F)cc(OC(F)F)c3)cc2n1S(=O)(=O)c1cccc(C(F)(F)F)c1 |  | 45.3 | 
14 | O=C(O)CC1Cc2ccc(-c3ccc4c(c3)CCO4)cc2N1S(=O)(=O)c1cccc(C(F)(F)F)c1 (stereo not drawn) |  | 56.8 | 
15 | O=C(O)CC1CN(S(=O)(=O)c2cccc(C(F)(F)F)c2)c2cc(-c3cc(F)cc(OC(F)F)c3)ccc21 (stereo not drawn) | 45.6 | 21.8 | 
16 | O=C(O)C[C@@H]1Cc2ccc(-c3cc(F)cc(OC(F)F)c3)cc2N1S(=O)(=O)c1cccc(C(F)(F)F)c1 |  | 16.1 | EC50 [2]: 201 nM
17 | CC(C)Oc1cc(F)cc(-c2ccc3c(c2)N(S(=O)(=O)c2cccc(C(F)(F)F)c2)C(CC(=O)O)C3)c1 (stereo not drawn) |  | 124 | 
18 | O=C(O)CCC1CN(S(=O)(=O)c2cccc(C(F)(F)F)c2)c2cc(-c3cc(F)cc(OC(F)F)c3)ccc21 (stereo not drawn) | 24.5 | 14.6 | 
19 | O=C(O)CCCc1cn(S(=O)(=O)c2cccc(C(F)(F)F)c2)c2cc(-c3cc(F)cc(OC(F)F)c3)ccc12 |  | 93.8 | 
20 | O=C1CCN(C(=O)CC2Cc3ccc(-c4cc(F)cc(OC(F)F)c4)cc3N2S(=O)(=O)c2cccc(C(F)(F)F)c2)C1 (stereo not drawn) |  | 52.3 | 
21 | O=C(CC1Cc2ccc(-c3cc(F)cc(OC(F)F)c3)cc2N1S(=O)(=O)c1cccc(C(F)(F)F)c1)N1CCOCC1 (stereo not drawn) |  | 209 | 
22 | O=S(=O)(c1cccc(C(F)(F)F)c1)n1ccc2ccc(-c3cc(F)cc(OC(F)F)c3)cc21 | 39.1 | 99.4 | 

Row | Compound | half-life at 1 µM [1] [min] | EC50 [3] [nM] | other results
23 | O=C(O)C[C@H]1Cc2ccc(-c3cc(F)cc(OC(F)F)c3)cc2N1S(=O)(=O)c1cccc(C(F)(F)F)c1 |  | 286 | 
24 | O=C(O)CC1Cc2ccc(-c3cc(F)cc(C(F)(F)F)c3)cc2N1S(=O)(=O)c1cccc(C(F)(F)F)c1 (stereo not drawn) |  | 41.3 | 
25 | O=C(O)CCC1Cc2ccc(-c3cc(F)cc(OC(F)F)c3)cc2N1S(=O)(=O)c1cccc(C(F)(F)F)c1 (stereo not drawn) | 60.9 | 31.3 | EC50 [2]: 2320 nM
26 | O=C1CN(C(=O)CC2Cc3ccc(-c4cc(F)cc(OC(F)F)c4)cc3N2S(=O)(=O)c2cccc(C(F)(F)F)c2)C1 (stereo not drawn) |  | 78.8 | 
27 | O=C(CC1Cc2ccc(-c3cc(F)cc(OC(F)F)c3)cc2N1S(=O)(=O)c1cccc(C(F)(F)F)c1)N1CCC(O)CC1 (stereo not drawn) | 0.7 | 106 | EC50 [2]: 6040 nM
28 | O=C(O)Cc1cc2ccc(-c3cc(F)cc(OC(F)F)c3)cc2n1S(=O)(=O)c1cccc(C(F)(F)F)c1 |  | 125 | 
29 | O=C(O)CCCC1CN(S(=O)(=O)c2cccc(C(F)(F)F)c2)c2cc(-c3cc(F)cc(OC(F)F)c3)ccc21 (stereo not drawn) | 34.2 | 26.2 | 
30 | O=C(O)C1CCN(C(=O)CC2Cc3ccc(-c4cc(F)cc(OC(F)F)c4)cc3N2S(=O)(=O)c2cccc(C(F)(F)F)c2)CC1 (stereo not drawn) | 30.1 | 57.1 | EC50 [2]: 5440 nM
31 | O=C1CCN(C(=O)CC2Cc3ccc(-c4cc(F)cc(OC(F)F)c4)cc3N2S(=O)(=O)c2cccc(C(F)(F)F)c2)CC1 (stereo not drawn) |  | 80.4 | 
32 | O=C(CC1Cc2ccc(-c3cc(F)cc(OC(F)F)c3)cc2N1S(=O)(=O)c1cccc(C(F)(F)F)c1)N1CCS(=O)(=O)CC1 (stereo not drawn) | 2 | 43.4 | EC50 [2]: 322 nM
33 | O=S(=O)(c1cccc(C(F)(F)F)c1)N1CCc2ccc(OCc3c(F)cccc3Cl)cc21 | 2.9 | 30.2 | solubility kinetic at 2 h, 100 µM (physchem): 0.08 µM (≈ 0.0389 µg/mL); microsomal CLint at 1 h, 1 µM (in vitro): 482 µL/min/mg
34 | O=C(O)CCCC1Cc2ccc(-c3cc(F)cc(OC(F)F)c3)cc2N1S(=O)(=O)c1cccc(C(F)(F)F)c1 (stereo not drawn) | 93.3 | 25.2 | EC50 [2]: 422 nM
35 | O=S(=O)(c1cccc(C(F)(F)F)c1)n1cnc2ccc(-c3cc(F)cc(OC(F)F)c3)cc21 |  | 122 | 
36 | CCOc1cc(F)cc(-c2ccc3c(c2)N(S(=O)(=O)c2cccc(C(F)(F)F)c2)C(CC(=O)O)C3)c1 (stereo not drawn) |  | 32.9 | 
37 | O=C(O)CC1Cc2ccc(-c3cc(F)cc(F)c3)cc2N1S(=O)(=O)c1cccc(C(F)(F)F)c1 (stereo not drawn) |  | 25.7 | 
38 | O=C(O)CC1Cc2ccc(-c3cc(F)cc(Cl)c3)cc2N1S(=O)(=O)c1cccc(C(F)(F)F)c1 (stereo not drawn) |  | 42 | 
39 | O=C(O)C1CN(C(=O)CC2Cc3ccc(-c4cc(F)cc(OC(F)F)c4)cc3N2S(=O)(=O)c2cccc(C(F)(F)F)c2)C1 (stereo not drawn) | 65.9 | 49.3 | EC50 [2]: 4050 nM
40 | O=C(O)CC1Cc2ccc(-c3cc(F)cc(OC(F)F)c3)cc2N1S(=O)(=O)c1cccc(C(F)(F)F)c1 (racemic) | 113 | 20.8 | clearance [4]: 9.55 mL/min/kg; Cmax [5]: 1400 ng/mL; half-life [6]: 295 min; EC50 [2]: 247 nM; solubility kinetic at 2 h, 100 µM (physchem): 69.4 µM (≈ 37.9 µg/mL); half-life [7]: 249 min; Cmax [8]: 1640 ng/mL; microsomal CLint at 1 h, 1 µM (in vitro): 12.3 µL/min/mg; bioavailability [9]: 107%; AUC(0-t) at 24 h [10]: 1710 ng·h/mL; AUC(0-t) at 24 h [11]: 9120 ng·h/mL; Vd [12]: 2.09 L/kg
41 | CC(C)(C[C@H]1CN(S(=O)(=O)c2cccc(C(F)(F)F)c2)c2cc(-c3cc(F)cc(OC(F)F)c3)ccc2O1)C(=O)O [CINTIRORGON] |  |  | solubility kinetic at 2 h, 100 µM (physchem): 37.5 µM (≈ 22.6 µg/mL)
42 | CC(=O)N1CCN(c2ccc(OCC3COC(Cn4ccnc4)(c4ccc(Cl)cc4Cl)O3)cc2)CC1 (stereo not drawn) [KETOCONAZOLE] |  |  | solubility kinetic at 2 h, 100 µM (physchem): 31.1 µM (≈ 16.5 µg/mL)
43 | COC(=O)C1=C(C)NC(C)=C(C(=O)OCCN(C)Cc2ccccc2)C1c1cccc([N+](=O)[O-])c1 (stereo not drawn) [NICARDIPINE] |  |  | solubility kinetic at 2 h, 100 µM (physchem): 5.01 µM (≈ 2.4 µg/mL)
